Test system: PDCD1
Experiment: NGS editing of PDCD1 by dgRNA in HEK cells stably expressing Cas9;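 further: dgRNA lipofected into Cas9-expressing HEK cells, lysed after 24 h, target amplicon sequenced, editing = reads carrying insertions or deletions as percent of all reads including wild type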
Type: cell-based, human
Conditions: at least 3 experiments
Excerpt: Transfection of Cas9GFP-expressing HEK293 cells (HEK-293_Cas9GFP) was used for primary screening of target specific crRNAs. […] Selected crRNAs were chemically synthesized and delivered in a 96 well format. HEK-293-Cas9GFP cells were transfected with target crRNAs comprising a flagpole region of SEQ ID NO: 6607 in a 1:1 ratio with stock trRNA of SEQ ID NO: 6660. The transfection was mediated using lipofection technology according to manufacturer's protocol (DharmaFECT Duo, GE LifeSciences; or RNAiMax, LifeTechnologies). Transfected cells were lysed 24 h following lipofection and editing (e.g., cleavage) was detected within lysates with the T7E1 assay and/or next generation sequencing (NGS; below).
PCR primers were first designed around the target site, and the genomic area of interest PCR amplified. Additional PCR was performed according to manufacturer's protocols (Illumina) to add the necessary chemistry for sequencing. The amplicons were then sequenced on an Illumina MiSeq instrument. The reads were then aligned to the human reference genome (e.g., hg38) after eliminating those having low quality scores. From the resulting files containing the reads mapped to the reference genome (BAM files), reads which overlap the target region of interest were selected and the number of wild type reads versus the number of reads which contain an insertion or deletion was calculated. The editing percentage was then defined as the total number of reads with insertions or deletions over the total number of reads, including wild type. To determine the pattern of insertions and/or deletions that resulted from the edit, the aligned reads with indels were selected and the number of a reads with a given indel were summed.
Editing of CRISPR systems containing dgRNA molecules comprising targeting domains to sequences of PDCD1 were tested for editing in HEK (gRNA delivered to cells stably expressing Cas9) and CD3+ T cells (gRNA and Cas9 delivered as RNP) according to the methods described herein.
All mean editing % are as measured by NGS and are based on at least 3 experiments.

Q: With “CR000858: dgRNA targeting domain to PDCD1 (guide CAGCUUGUCCGUCUGGUUGC; targeting domain within dual guide RNA, chemistry not given here, further chemistry not given here; listed as Homo sapiens)” as the substance, how does the “HEK (NGS) % Editing Mean” value read?
A: 16%

Q: “CR000863: dgRNA targeting domain to PDCD1 (guide CCGGGCUGGCUGCGGUCCUC; targeting domain within dual guide RNA, chemistry not given here, further chemistry not given here; listed as Homo sapiens)” was tested. Which “HEK (NGS) % Editing Mean” value did it give?
A: 40%

Q: “CR000864: dgRNA targeting domain to PDCD1 (guide CCCGAGGACCGCAGCCAGCC; targeting domain within dual guide RNA, chemistry not given here, further chemistry not given here; listed as Homo sapiens)” was tested. Which “HEK (NGS) % Editing Mean” value did it give?
A: 7%

Q: Which “HEK (NGS) % Editing Mean” value does the source give for “CR000865: dgRNA targeting domain to PDCD1 (guide GCCGGGCUGGCUGCGGUCCU; targeting domain within dual guide RNA, chemistry not given here, further chemistry not given here; listed as Homo sapiens)” here?
A: 4%

Q: For “CR000866: dgRNA targeting domain to PDCD1 (guide CGGAAGCGGCAGUCCUGGCC; targeting domain within dual guide RNA, chemistry not given here, further chemistry not given here; listed as Homo sapiens)”, which “HEK (NGS) % Editing Mean” value is on record?
A: 4%

Q: How did the “HEK (NGS) % Editing Mean” value turn out when “CR000867: dgRNA targeting domain to PDCD1 (guide ACGGAAGCGGCAGUCCUGGC; targeting domain within dual guide RNA, chemistry not given here, further chemistry not given here; listed as Homo sapiens)” was run?
A: 24%

Q: “CR000868: gRNA targeting domain to PDCD1, UGACACGGAAGCGGCAGUCC (SEQ ID NO: 5764) (targeting domain within guide RNA, chemistry not given here, further chemistry not given here; listed as Homo sapiens)” was tested. Which “HEK (NGS) % Editing Mean” value did it give?
A: 47%

Q: Which “HEK (NGS) % Editing Mean” value does the source give for “CR000869: dgRNA targeting domain to PDCD1 (guide GCAGUUGUGUGACACGGAAG; targeting domain within dual guide RNA, chemistry not given here, further chemistry not given here; listed as Homo sapiens)” here?
A: 55%

Q: How did the “HEK (NGS) % Editing Mean” value turn out when “CR000870: dgRNA targeting domain to PDCD1 (guide CGUGUCACACAACUGCCCAA; targeting domain within dual guide RNA, chemistry not given here, further chemistry not given here; listed as Homo sapiens)” was run?
A: 66%

Q: For “CR000871: dgRNA targeting domain to PDCD1 (guide GUGUCACACAACUGCCCAAC; targeting domain within dual guide RNA, chemistry not given here, further chemistry not given here; listed as Homo sapiens)”, which “HEK (NGS) % Editing Mean” value is on record?
A: 57%

Q: Which “HEK (NGS) % Editing Mean” value does the source give for “CR000872: dgRNA targeting domain to PDCD1 (guide AUGUGGAAGUCACGCCCGUU; targeting domain within dual guide RNA, chemistry not given here, further chemistry not given here; listed as Homo sapiens)” here?
A: 26%

Q: With “CR000874: dgRNA targeting domain to PDCD1 (guide GCGUGACUUCCACAUGAGCG; targeting domain within dual guide RNA, chemistry not given here, further chemistry not given here; listed as Homo sapiens)” as the substance, how does the “HEK (NGS) % Editing Mean” value read?
A: 47%

Q: For “CR000875: dgRNA targeting domain to PDCD1 (guide ACUUCCACAUGAGCGUGGUC; targeting domain within dual guide RNA, chemistry not given here, further chemistry not given here; listed as Homo sapiens)”, which “HEK (NGS) % Editing Mean” value is on record?
A: 6%

Q: With “CR000877: dgRNA targeting domain to PDCD1 (guide GGGCCCUGACCACGCUCAUG; targeting domain within dual guide RNA, chemistry not given here, further chemistry not given here; listed as Homo sapiens)” as the substance, how does the “HEK (NGS) % Editing Mean” value read?
A: 5%

Q: With “CR000878: dgRNA targeting domain to PDCD1 (guide ACAUGAGCGUGGUCAGGGCC; targeting domain within dual guide RNA, chemistry not given here, further chemistry not given here; listed as Homo sapiens)” as the substance, how does the “HEK (NGS) % Editing Mean” value read?
A: 1%

Q: For “CR000879: dgRNA targeting domain to PDCD1 (guide AGGGCCCGGCGCAAUGACAG; targeting domain within dual guide RNA, chemistry not given here, further chemistry not given here; listed as Homo sapiens)”, which “HEK (NGS) % Editing Mean” value is on record?
A: 68%

Q: How did the “HEK (NGS) % Editing Mean” value turn out when “CR000880: dgRNA targeting domain to PDCD1 (guide GGUGCCGCUGUCAUUGCGCC; targeting domain within dual guide RNA, chemistry not given here, further chemistry not given here; listed as Homo sapiens)” was run?
A: 10%

Q: “CR000881: gRNA targeting domain to PDCD1, AGGUGCCGCUGUCAUUGCGC (SEQ ID NO: 5777) (targeting domain within guide RNA, chemistry not given here, further chemistry not given here; listed as Homo sapiens)” was tested. Which “HEK (NGS) % Editing Mean” value did it give?
A: 21%

Q: How did the “HEK (NGS) % Editing Mean” value turn out when “CR000882: dgRNA targeting domain to PDCD1 (guide GACAGCGGCACCUACCUCUG; targeting domain within dual guide RNA, chemistry not given here, further chemistry not given here; listed as Homo sapiens)” was run?
A: 50%

Q: “CR000883: dgRNA targeting domain to PDCD1 (guide ACAGCGGCACCUACCUCUGU; targeting domain within dual guide RNA, chemistry not given here, further chemistry not given here; listed as Homo sapiens)” was tested. Which “HEK (NGS) % Editing Mean” value did it give?
A: 9%

Q: How did the “HEK (NGS) % Editing Mean” value turn out when “CR000884: dgRNA targeting domain to PDCD1 (guide CCAGGGAGAUGGCCCCACAG; targeting domain within dual guide RNA, chemistry not given here, further chemistry not given here; listed as Homo sapiens)” was run?
A: 59%

Q: How did the “HEK (NGS) % Editing Mean” value turn out when “CR000885: dgRNA targeting domain to PDCD1 (guide GAUCUGCGCCUUGGGGGCCA; targeting domain within dual guide RNA, chemistry not given here, further chemistry not given here; listed as Homo sapiens)” was run?
A: 10%

Q: How did the “HEK (NGS) % Editing Mean” value turn out when “CR000886: dgRNA targeting domain to PDCD1 (guide UGAUCUGCGCCUUGGGGGCC; targeting domain within dual guide RNA, chemistry not given here, further chemistry not given here; listed as Homo sapiens)” was run?
A: 2%

Q: “CR000887: dgRNA targeting domain to PDCD1 (guide CUCUUUGAUCUGCGCCUUGG; targeting domain within dual guide RNA, chemistry not given here, further chemistry not given here; listed as Homo sapiens)” was tested. Which “HEK (NGS) % Editing Mean” value did it give?
A: 46%

Q: For “CR000888: dgRNA targeting domain to PDCD1 (guide UCUCUUUGAUCUGCGCCUUG; targeting domain within dual guide RNA, chemistry not given here, further chemistry not given here; listed as Homo sapiens)”, which “HEK (NGS) % Editing Mean” value is on record?
A: 4%

Q: For “CR000889: dgRNA targeting domain to PDCD1 (guide CUCUCUUUGAUCUGCGCCUU; targeting domain within dual guide RNA, chemistry not given here, further chemistry not given here; listed as Homo sapiens)”, which “HEK (NGS) % Editing Mean” value is on record?
A: 3%

Q: “CR000890: dgRNA targeting domain to PDCD1 (guide GCUCUCUUUGAUCUGCGCCU; targeting domain within dual guide RNA, chemistry not given here, further chemistry not given here; listed as Homo sapiens)” was tested. Which “HEK (NGS) % Editing Mean” value did it give?
A: 5%

Q: “CR000891: dgRNA targeting domain to PDCD1 (guide CGCAGAUCAAAGAGAGCCUG; targeting domain within dual guide RNA, chemistry not given here, further chemistry not given here; listed as Homo sapiens)” was tested. Which “HEK (NGS) % Editing Mean” value did it give?
A: 29%

Q: With “CR000892: dgRNA targeting domain to PDCD1 (guide GCAGAUCAAAGAGAGCCUGC; targeting domain within dual guide RNA, chemistry not given here, further chemistry not given here; listed as Homo sapiens)” as the substance, how does the “HEK (NGS) % Editing Mean” value read?
A: 45%

Q: For “CR000893: dgRNA targeting domain to PDCD1 (guide AGAGCCUGCGGGCAGAGCUC; targeting domain within dual guide RNA, chemistry not given here, further chemistry not given here; listed as Homo sapiens)”, which “HEK (NGS) % Editing Mean” value is on record?
A: 10%

Q: For “CR000894: dgRNA targeting domain to PDCD1 (guide AGGGUUUGGAACUGGCCGGC; targeting domain within dual guide RNA, chemistry not given here, further chemistry not given here; listed as Homo sapiens)”, which “HEK (NGS) % Editing Mean” value is on record?
A: 19%

— US12037583B2, “Compositions and methods for immunooncology” (Novartis AG, priority 2015, dated 2024)
